Tested on: Respiratory syncytial virus (RSV) strain A2
Assay: Hep-2 RSV2 384-well assay (EC50-HEP2-384)
Format: cell-based
Settings: HEp-2 cells, RSV A2, MOI=4, 4 days, Table 3

SMILES | EC50
C[C@H](NP(=O)(OC[C@H]1O[C@@](C#N)(c2ccc3c(N)ncnn23)[C@H](O)[C@@H]1O)Oc1ccc(C(C)(C)C)cc1)C(=O)OC1CCC1 (single isomer, unassigned) [Example 31b] | 41.1 nM
CCCOC(=O)[C@H](C)NP(=O)(OC[C@H]1O[C@@](C#N)(c2ccc3c(N)ncnn23)[C@H](O)[C@@H]1O)Oc1ccc(C(C)(C)C)cc1 (single isomer, unassigned) [Example 47b] | 68.3 nM
CCCOC(=O)[C@H](C)NP(=O)(OC[C@H]1O[C@@](C#N)(c2ccc3c(N)ncnn23)[C@H](OC(=O)C(C)C)[C@@H]1OC(=O)C(C)C)Oc1ccc(C(C)(C)C)cc1 (single isomer, unassigned) [Example 48b] | 55.4 nM
CCC(CC)COC(=O)[C@H](C)NP(=O)(OC[C@H]1O[C@@](C#N)(c2ccc3c(N)ncnn23)[C@H](O)[C@@H]1O)Oc1cccc2c1CCCC2 (single isomer, unassigned) [Example 135] | 1260 nM
CCC(CC)COC(=O)[C@H](C)NP(=O)(OC[C@H]1O[C@@](C#N)(c2ccc3c(N)ncnn23)[C@H](O)[C@@H]1O)Oc1cccc2c1CCCC2 (single isomer, unassigned) [Example 136] | 377 nM

Same assay, conditions: human respiratory syncytial virus, HEp-2, 96 h, HEp-2 cells, RSV A2, MOI=4, 4 days, Table 3

SMILES | EC50
CCCOC(=O)[C@H](C)NP(=O)(OC[C@H]1O[C@@](C#N)(c2ccc3c(N)ncnn23)[C@H](O)[C@@H]1O)Oc1ccc(C(C)(C)C)cc1 (single isomer, unassigned) [Example 47a] | 41.6 nM
CCCOC(=O)[C@H](C)NP(=O)(OC[C@H]1O[C@@](C#N)(c2ccc3c(N)ncnn23)[C@H](OC(=O)C(C)C)[C@@H]1OC(=O)C(C)C)Oc1ccc(C(C)(C)C)cc1 (single isomer, unassigned) [Example 48a] | 34 nM
C[C@H](NP(=O)(OC[C@H]1O[C@@](C#N)(c2ccc3c(N)ncnn23)[C@H](O)[C@@H]1O)Oc1ccc(C(C)(C)C)cc1)C(=O)O[C@H]1CCOC1 (stereo partly drawn) [Example 34, (S)-tetrahydrofuran-3-yl ((((2R,3S,4R,5R)-5-(4-aminopyrrolo[2,1-f][1,2,4]triazin-7-yl)-5-cyano-3,4-dihydroxytetrahydrofuran-2-yl)methoxy)(4-(tert-butyl)phenoxy)phosphoryl)-L-alaninate] | 1500 nM
CC(=O)O[C@H]1[C@@H](OC(C)=O)[C@](C#N)(c2ccc3c(N)ncnn23)O[C@@H]1COP(=O)(N[C@@H](C)C(=O)O[C@H]1CCOC1)Oc1ccc(C(C)(C)C)cc1 (stereo partly drawn) [Example 35, (2R,3R,4R,5R)-2-(4-aminopyrrolo[2,1-f][1,2,4]triazin-7-yl)-5-((((4-(tert-butyl)phenoxy)(((S)-1-oxo-1-(((S)-tetrahydrofuran-3-yl)oxy)propan-2-yl)amino)phosphoryl)oxy)methyl)-2-cyanotetrahydrofuran-3,4-diyl Diacetate] | 185 nM
CC(C)C(=O)O[C@H]1[C@@H](OC(=O)C(C)C)[C@](C#N)(c2ccc3c(N)ncnn23)O[C@@H]1COP(=O)(N[C@@H](C)C(=O)O[C@H]1CCOC1)Oc1ccc(C(C)(C)C)cc1 (stereo partly drawn) [Example 36, (2R,3R,4R,5R)-2-(4-aminopyrrolo[2,1-f][1,2,4]triazin-7-yl)-5-((((4-(tert-butyl)phenoxy)(((S)-1-oxo-1-(((S)-tetrahydrofuran-3-yl)oxy)propan-2-yl)amino)phosphoryl)oxy)methyl)-2-cyanotetrahydrofuran-3,4-diyl bis(2-methylpropanoate)] | 102 nM
CC(C)C(=O)O[C@H]1[C@@H](OC(=O)C(C)C)[C@](C#N)(c2ccc3c(N)ncnn23)O[C@@H]1CO[P@@](=O)(N[C@@H](C)C(=O)O[C@H]1CCOC1)Oc1ccc(C(C)(C)C)cc1 [Example 38, (2R,3R,4R,5R)-2-(4-aminopyrrolo[2,1-f][1,2,4]triazin-7-yl)-5-((((4-(tert-butyl)phenoxy)(((S)-1-oxo-1-(((S)-tetrahydrofuran-3-yl)oxy)propan-2-yl)amino)phosphoryl)oxy)methyl)-2-cyanotetrahydrofuran-3,4-diyl bis(2-methylpropanoate)] | 138 nM
CCC(CC)COC(=O)[C@H](C)NP(=O)(OC[C@H]1O[C@@](C#N)(c2ccc3c(N)ncnn23)[C@H](O)[C@@H]1O)Oc1ccc(C#N)cc1 (stereo partly drawn) [Example 39, 2-ethylbutyl ((((2R,3S,4R,5R)-5-(4-aminopyrrolo[2,1-f][1,2,4]triazin-7-yl)-5-cyano-3,4-dihydroxytetrahydrofuran-2-yl)methoxy)(4-cyanophenoxy)phosphoryl)-L-alaninate] | 1600 nM
CCC(CC)COC(=O)[C@H](C)NP(=O)(OC[C@H]1O[C@@](C#N)(c2ccc3c(N)ncnn23)[C@H](OC(=O)C(C)C)[C@@H]1OC(=O)C(C)C)Oc1ccc(C#N)cc1 (stereo partly drawn) [Example 40, (2R,3R,4R,5R)-2-(4-aminopyrrolo[2,1-f][1,2,4]triazin-7-yl)-2-cyano-5-((((4-cyanophenoxy)(((S)-1-(2-ethylbutoxy)-1-oxopropan-2-yl)amino)phosphoryl)oxy)methyl)tetrahydrofuran-3,4-diyl bis(2-methylpropanoate)] | 226 nM
CCOC(=O)[C@H](C)NP(=O)(OC[C@H]1O[C@@](C#N)(c2ccc3c(N)ncnn23)[C@H](O)[C@@H]1O)Oc1ccc(C23CC(C2)C3)cc1 (stereo partly drawn) [Example 41, Ethyl ((((2R,3S,4R,5R)-5-(4-aminopyrrolo[2,1-f][1,2,4]triazin-7-yl)-5-cyano-3,4-dihydroxytetrahydrofuran-2-yl)methoxy)(4-(bicyclo[1.1.1]pentan-1-yl)phenoxy)phosphoryl)-L-alaninate] | 142 nM
C[C@H](NP(=O)(OC[C@H]1O[C@@](C#N)(c2ccc3c(N)ncnn23)[C@H](O)[C@@H]1O)Oc1ccc(C(C)(C)C)cc1)C(=O)OCc1ccccc1 (stereo partly drawn) [Example 57, Benzyl ((((2R,3S,4R,5R)-5-(4-aminopyrrolo[2,1-f][1,2,4]triazin-7-yl)-5-cyano-3,4-dihydroxytetrahydrofuran-2-yl)methoxy)(4-(tert-butyl)phenoxy)phosphoryl)-L-alaninate] | 186 nM
CC(C)C(=O)O[C@H]1[C@@H](OC(=O)C(C)C)[C@](C#N)(c2ccc3c(N)ncnn23)O[C@@H]1COP(=O)(N[C@@H](C)C(=O)OCc1ccccc1)Oc1ccc(C(C)(C)C)cc1 (stereo partly drawn) [Example 58, (2R,3R,4R,5R)-2-(4-aminopyrrolo[2,1-f][1,2,4]triazin-7-yl)-5-((((((S)-1-(benzyloxy)-1-oxopropan-2-yl)amino)(4-(tert-butyl)phenoxy)phosphoryl)oxy)methyl)-2-cyanotetrahydrofuran-3,4-diyl bis(2-methylpropanoate)] | 71.5 nM
CCC(CC)COC(=O)[C@H](C)NP(=O)(OC[C@H]1O[C@@](C#N)(c2ccc3c(N)ncnn23)[C@H](O)[C@@H]1O)Oc1ccc(N2CCOCC2)cc1 (stereo partly drawn) [Example 92, 2-ethylbutyl ((((2R,3S,4R,5R)-5-(4-aminopyrrolo[2,1-f][1,2,4]triazin-7-yl)-5-cyano-3,4-dihydroxytetrahydrofuran-2-yl)methoxy)(4-morpholinophenoxy)phosphoryl)-L-alaninate] | 2490 nM

Tested on: Respiratory syncytial virus (RSV) strain A2
Assay: RSV antiviral assay (HEp-2, 96 well)
Format: cell-based
Settings: human respiratory syncytial virus, HEp-2, 96 h, read-out: EC50 RSV HEP2 96, HEp-2 cells, RSV A2, MOI=4, 4 days, 96 well; Table 3

SMILES | EC50
CCC(CC)COC(=O)[C@H](C)NP(=O)(OC[C@H]1O[C@@](C#N)(c2ccc3c(N)ncnn23)[C@H](O)[C@@H]1O)Oc1cccc2ccccc12 (stereo partly drawn) [Intermediate S2, 2-Ethylbutyl ((((2R,3S,4R,5R)-5-(4-aminopyrrolo[2,1-f][1,2,4]triazin-7-yl)-5-cyano-3,4-dihydroxytetrahydrofuran-2-yl)methoxy)(naphthalen-1-yloxy)phosphoryl)-L-alaninate] | 84.8 nM

Tested on: SARS-CoV-2
Assay: SARS-CoV-2 antiviral assay (A549-hACE2, Nano luciferase)
Format: cell-based
Settings: Severe acute respiratory syndrome coronavirus 2, 48 h, A549-hACE2 cells, SARS-CoV2-Nano, MOI 0.025, 48 h; Table 4; read-out: EC50 SARS CoV2

SMILES | EC50
CCC(CC)COC(=O)[C@H](C)NP(=O)(OC[C@H]1O[C@@](C#N)(c2ccc3c(N)ncnn23)[C@H](O)[C@@H]1O)Oc1cccc2ccccc12 (stereo partly drawn) [Intermediate S2, 2-Ethylbutyl ((((2R,3S,4R,5R)-5-(4-aminopyrrolo[2,1-f][1,2,4]triazin-7-yl)-5-cyano-3,4-dihydroxytetrahydrofuran-2-yl)methoxy)(naphthalen-1-yloxy)phosphoryl)-L-alaninate] | 207 nM

From patent US12404289B2 (Gilead Sciences, Inc., priority 2020, dated 2025)
